Source: patent publication US8980946B2, “Treatment of obesity using non-daily administration of 6-O-(4-dimethylaminoethoxy) cinnamoyl fumagillol” (Zafgen, Inc., priority 2010, dated 2015)
Several values for one entry are separate records, joined by “and”; a condition that tells them apart may be missing. Equal entries are not always repeated. Marks after values point to notes of the source that are not given here.

Assays:
adiponectin = assay: Adiponectin levels in the serum of patients undergoing the trial; type: in vivo, human; settings: with treatment
Experimental: Levels of adiponectin in the serum of patients undergoing the trial were also measured.

[1] = human, in vivo
Experimental: (§1) The compound was intravenously administered to each patient of a cohort (except for a placebo cohort) twice weekly for 26 days. Each of patients in the three non-placebo cohorts received either 0.1 mg/m^2 (cohort 1); 0.3 mg/m^2 (cohort 2); or 0.9 mg/m^2 (cohort 3) doses of the compound at the time of administration. The trial was conducted under the appropriate government and medical supervision.
There was a significant correlation between weight loss of patients and maintained exposure of 0.02 ng/mL of the drug above the level of quantitation of the assay 24 hours after dosing, as shown in FIG. 4 (circled data point is exposure of one poor responder below the level of quantitation of assay). The PK profile at day 26 is representative of steady state (see FIG. 5).

[2] = Visual Analog Scale of hunger in obese patients, twice weekly dosing; type: in vivo, human; settings: successive twice weekly doses, 0.9 mg/m^2 cohort
Experimental: FIG. 2 depicts visual analogue scale of hunger decline by approximately 50% with body weight change (percent) with twice weekly dosing off 0.1 mg/m^2, 0.3 mg/m^2, and 0.9 mg/m^2 (approximately 1.8 to 2.1 mg) of 6-O-(4-dimethylaminoethoxy)cinnamoyl fumagillol in human patients. Values are means (n=6 per dose level) of changes in fasted Visual Analog Scale scores for each visit day vs. Day 1 for population; p values derived from 2-way ANOVA with Bonferroni post-test comparisons (*, p<0.05; **, p<0.01 vs. placebo).
as §1
(§2) FIG. 1 depicts the body weight change (loss) as a percent before each administration of the twice weekly dose for the 0.9 mg/m^2 cohort. FIG. 2 depicts the Visual Analog Scale reports of hunger decline about 50% following successive biweekly dose administration for the 0.9 mg/m^2 cohort.

Sprague-Dawley male rats = assay: Testis toxicity study, subcutaneous administration daily or every third day for 4 weeks; type: in vivo, rat
Experimental: A testis toxicity study was performed using daily subcutaneous administration or every other day (every third day) subcutaneous administration in rats. […] Additionally, equivalent total exposure using a 3 mg/kg dose administered every third day was compared as well.
64 Sprague-Dawley male rats within ±20% of mean body weight at initiation of dosing were used for the study. Vehicle control or Compound was administered once daily or every 3rd day for 4 weeks, at a volume of 5 mL/kg, as follows, with groups 1-4 for toxicity and groups 5-8 for toxicokinetic studies.
Upon completion of the study, complete necropsy examinations are performed, and the seminal vesicle, testes, and other organs are weighed at terminal necropsy. Terminal body weights are determined just prior to necropsy for assessment of organ weight changes.

[3] = Injection site tolerability; type: in vivo; settings: doses up to 6 mg
[4] = Twice weekly intravenous administration to obese patients for 26 days: body weight; type: in vivo, human
Experimental: as §1
Table 1 summarizes body weight determination of the 9 patients in the 0.9 mg/m^2 cohort on the day of the first dose and prior to a second dose administered three or four days later.
as §2
All of the subjects of the trial described in Example 1 received doses ranging from 1.8 to 2.2 mg with each administration (given twice weekly). However, weight change was not strictly associated with dose delivered. Instead, response was strongly associated with dose administered per unit excess body weight, as compared to weight change associated with dose delivered per unit body weight.

[5] = rat, s.c., 4 weeks, 1 mg/kg daily
[6] = rat, s.c., 4 weeks, 1 mg/kg every 3rd day
[7] = rat, s.c., 4 weeks, 3 mg/kg every 3rd day
[8] = average of 9 patients, 0.9 mg/m^2 cohort, first dose to before second dose
[9] = individual subject, 0.9 mg/m^2 cohort, first dose to before second dose three or four days later

For CO[C@@H]1[C@H](OC(=O)/C=C/c2ccc(OCCN(C)C)cc2)CC[C@]2(CO2)[C@H]1[C@@]1(C)O[C@@H]1CC=C(C)C.O=C(O)C(=O)O [6-O-(4-dimethylaminoethoxy)cinnamoyl fumagillol oxalate], the “increase of adiponectin concentrations” value (adiponectin) was “over 60%”, the “drug exposure at 24 hours post dose associated with weight loss” value [1] was “above 0.02 ng/mL” and the “AUC (0-24 hr) measured range” value ([1]; iv, 0.9 mg/m2) was 8.57 to 13.6 ng·h/mL. For the same molecule, the “T1/2 (H) λz (terminal)” value ([1]; iv, 0.9 mg/m2) was 5.41±2.82 H, the “average AUC (0-24 hr)” value ([1]; iv, 0.9 mg/m2) was 10.5 ng·h/mL and the “average AUC (0-∞)” value ([1]; iv, 0.9 mg/m2) was 11 ng·h/mL. The “average Cmax” value ([1]; iv, 0.9 mg/m2) was 2.1 ng/mL, the terminal half life ([1]; iv, 0.9 mg/m2) was 5.4 h and the “Visual Analog Scale hunger decline” value [2] was “about 50%”. The “Visual Analog Scale hunger decline” value ([2]; listed as 6-O-(4-dimethylaminoethoxy)cinnamoyl fumagillol) was “approximately 50%”, the “Clinical Chemistry findings” value (Sprague-Dawley male rats; rat, 1 mg/kg Q3D) was “No findings” and the Hematology findings (Sprague-Dawley male rats; rat, 1 mg/kg Q3D) was “No findings”. The Macroscopic findings (Sprague-Dawley male rats; rat, 1 mg/kg Q3D) was “No findings”, the Microscopic findings (Sprague-Dawley male rats; rat, 1 mg/kg Q3D) was “No findings” and the Organ weight findings (Sprague-Dawley male rats; rat, 1 mg/kg Q3D) was “No findings”. For the same molecule, the “Clinical Chemistry: Higher albumin/globulin” value (Sprague-Dawley male rats; rat, 1 mg/kg/day) was “Higher albumin/globulin (1.12X)”, the “Clinical Chemistry: Higher potassium” value (Sprague-Dawley male rats; rat, 1 mg/kg/day) was “Higher potassium (1.2X)” and the “Clinical Chemistry: Reduced Inorg phosphate” value (Sprague-Dawley male rats; rat, 1 mg/kg/day) was “Reduced Inorg phosphate (0.96 X)”. For the same molecule, the “Clinical Chemistry: Reduced alk phos” value (Sprague-Dawley male rats; rat, 1 mg/kg/day) was “Reduced alk phos (0.72X)”, the Hematology findings (Sprague-Dawley male rats; rat, 1 mg/kg/day) was “Reduced blood cell counts” and the “Hematology: Basophil” value (Sprague-Dawley male rats; rat, 1 mg/kg/day) was 0.55 X. For the same molecule, the “Hematology: Eosinophil” value (Sprague-Dawley male rats; rat, 1 mg/kg/day) was 0.75 X, the “Hematology: Large unstained cell” value (Sprague-Dawley male rats; rat, 1 mg/kg/day) was “(0.67X)” and the “Hematology: Lymphocyte” value (Sprague-Dawley male rats; rat, 1 mg/kg/day) was 0.65 X. The “Hematology: Monocyte” value (Sprague-Dawley male rats; rat, 1 mg/kg/day) was 0.79 X, the “Hematology: Neutrophil” value (Sprague-Dawley male rats; rat, 1 mg/kg/day) was 0.83 X and the “Hematology: WBC” value (Sprague-Dawley male rats; rat, 1 mg/kg/day) was 0.68 X. The Macroscopic findings (Sprague-Dawley male rats; rat, 1 mg/kg/day) was “Smaller testes and epididymides”, the “Microscopic findings, lymph node” value (Sprague-Dawley male rats; rat, 1 mg/kg/day) was “Lymph node atrophy” and the “Microscopic: Germ cell depletion/degeneration (incidence)” value (Sprague-Dawley male rats; rat, 1 mg/kg/day) was “Germ cell depletion/degeneration 9/10”. The “Organ weight: Adrenal” value (Sprague-Dawley male rats; rat, 1 mg/kg/day) was “(1.24X)”, the “Organ weight: Brain” value (Sprague-Dawley male rats; rat, 1 mg/kg/day) was 1.15 X and the “Organ weight: Epididymides” value (Sprague-Dawley male rats; rat, 1 mg/kg/day) was 0.88 X. The “Organ weight: Liver” value (Sprague-Dawley male rats; rat, 1 mg/kg/day) was 0.85 X, the “Organ weight: Prostate” value (Sprague-Dawley male rats; rat, 1 mg/kg/day) was 0.83 X and the “Organ weight: Salivary gland” value (Sprague-Dawley male rats; rat, 1 mg/kg/day) was 0.87 X. The “Organ weight: Seminal vesicle” value (Sprague-Dawley male rats; rat, 1 mg/kg/day) was 0.79 X, the “Organ weight: Spleen” value (Sprague-Dawley male rats; rat, 1 mg/kg/day) was 0.71 X and the “Organ weight: Testes” value (Sprague-Dawley male rats; rat, 1 mg/kg/day) was 0.83 X. For the same molecule, the “Organ weight: Thymus” value (Sprague-Dawley male rats; rat, 1 mg/kg/day) was 0.86 X, the “Organ weight: Thyroid” value (Sprague-Dawley male rats; rat, 1 mg/kg/day) was 0.82 X and the overall findings (Sprague-Dawley male rats; rat, 1 mg/kg/day) was “adverse findings (e.g. blood dyscrasias and/or irreversible testis lesions)”. For the same molecule, the “Clinical Chemistry: Higher albumin/globulin” value (Sprague-Dawley male rats; rat, 3 mg/kg Q3D) was “(1.09X)”, the Hematology findings (Sprague-Dawley male rats; rat, 3 mg/kg Q3D) was “No findings” and the Macroscopic findings (Sprague-Dawley male rats; rat, 3 mg/kg Q3D) was “No findings”. For the same molecule, the Microscopic findings (Sprague-Dawley male rats; rat, 3 mg/kg Q3D) was “No findings”, the Organ weight findings (Sprague-Dawley male rats; rat, 3 mg/kg Q3D) was “No findings” and the animal weight (Sprague-Dawley male rats; rat, 3 mg/kg every three days) was “reduces animal weight significantly”. The overall findings (Sprague-Dawley male rats; rat, 3 mg/kg every three days) was “does not show any significant adverse findings”, the “Epididymides absolute weight” value (Sprague-Dawley male rats; [5]) was 1.130 g and the “Prostate absolute weight” value (Sprague-Dawley male rats; [5]) was 0.546 g. For the same molecule, the “Seminal Vesicles absolute weight (g)” value (Sprague-Dawley male rats; [5]) was 1.201** g, the “Testes absolute weight (g)” value (Sprague-Dawley male rats; [5]) was 2.569* g and the “Thymus absolute weight” value (Sprague-Dawley male rats; [5]) was 0.343 g. For the same molecule, the “Epididymides absolute weight” value (Sprague-Dawley male rats; [6]) was 1.249 g, the “Prostate absolute weight” value (Sprague-Dawley male rats; [6]) was 0.710 g and the “Seminal Vesicles absolute weight” value (Sprague-Dawley male rats; [6]) was 1.523 g. The “Testes absolute weight” value (Sprague-Dawley male rats; [6]) was 3.097 g, the “Thymus absolute weight” value (Sprague-Dawley male rats; [6]) was 0.421 g and the “Epididymides absolute weight” value (Sprague-Dawley male rats; [7]) was 1.267 g. The “Prostate absolute weight” value (Sprague-Dawley male rats; [7]) was 0.663 g, the “Testes absolute weight” value (Sprague-Dawley male rats; [7]) was 3.273 g and the “Thymus absolute weight” value (Sprague-Dawley male rats; [7]) was 0.423 g. The “tissue weight effects (testes and seminal vesicle weights)” value (Sprague-Dawley male rats; rats administered with less frequent dosing (every third day)) was “no tissue weight effects”, the injection site tolerability [3] was “acceptable” and the “efficacy (weight loss)” value ([4]; 0.1 and 0.3 mg/m^2 twice weekly) was “Lack of efficacy”. For the same molecule, the “dose with which maximum efficacy is obtained” value ([4]; administered biweekly) was about 0.02 mg/kg, the “doses at which weight loss efficacy is obtained” value ([4]; administered twice weekly) was at least 0.02 mg/kg and the “dose at which weight loss plateaus” value ([4]; administered twice weekly (~1.8 mg dose)) was 0.9 mg/m^2. For the same molecule, the “weight loss at follow up check at day 36” value ([4]; after twice weekly regimen over 26 days) was “substantially sustained”, the “Weight Change (%), Average” value [4, 8] was −0.7% and the “Weight Change (kg), Average” value [4, 8] was -0.7 kg. For the same molecule, the “Ending weight (kg), Average” value ([4]; average of 9 patients, 0.9 mg/m^2 cohort, prior to second dose) was 103.9 kg, the “Weight Change” value [4, 9] was 0 kg and −0.5 kg and −0.7 kg and 0.2 kg and −0.6 kg and −1.1 kg (2×) and −0.9 kg and −1.9 kg and the “Weight Change (%)” value [4, 9] was 0.0% and −0.5% and −0.6% (2×) and 0.2% and −1.1% and −0.9% and −1.9% and −1.0%. The “Ending weight” value ([4]; individual subject, 0.9 mg/m^2 cohort, prior to second dose three or four days after first dose) was 107.9 kg and 105 kg and 118 kg and 96.2 kg and 95.7 kg and 100.4 kg and 103.7 kg and 100.5 kg and 107.5 kg, the “dose per kg of excess body weight to be exceeded to see effects” value ([4]; obese patients, twice weekly) was > 40 μg of drug per kg of excess body weight and the “number of patients showing greater than 3-4 percent body weight loss” value ([4]; of the 9 subjects at 0.9 mg/m^2, twice weekly, over 26 days of exposure) was 7. The “duration of weight reduction after single administration” value ([4]; single administration of 0.9 mg/m2 dose) was 4 days.
